{"source": "patent US11959083B2", "about": "“Immunosuppression-reverting oligonucleotides inhibiting the expression of CD39” (Secarna Pharmaceuticals GmbH & Co. KG, priority 2016, dated 2024)", "format_in_all_cases": "cell-based, human", "key": {"hCD39 mRNA [1]": {"tested_on": "hCD39 mRNA", "assay": "hCD39 mRNA knockdown efficacy screen in HDLM-2 cells (single dose, gymnotic delivery, QuantiGene Singleplex)", "design": "key to Relative hCD39 mRNA expression (compared to non-treated cells): *: values are below detection limit", "settings": "10 μM, 3 days", "outline": "(§1)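 Antisense oligonucleotides given once at 10 μM without transfection reagent (gymnotic) to HDLM-2 or A-172 cells for 3 days. hCD39 mRNA measured by QuantiGene Singleplex, normalized to HPRT1 and expressed relative to untreated cells; triplicate means.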"}, "HDLM-2 cells": {"tested_on": "HDLM-2 cells", "assay": "Viability of HDLM-2 cells (7-AAD, flow cytometry)", "settings": "three, four and six days, different concentrations", "protocol": "(§2) HDLM-2 cells were therefore treated with different concentrations of the respective antisense oligonucleotide for three, four and six days, respectively. Protein expression was analyzed by flow cytometry using the CD39 antibody (clone A1) and 7-AAD to investigate viability. […] Table 13summarizes protein knockdown efficiency of the selected human CD39 antisense oligonucleotides A04040H (SEQ ID No. 3) and A04045H (SEQ ID No. 4) in HDLM-2 cells at different time points: […]"}, "hCD39 mRNA [2]": {"tested_on": "hCD39 mRNA", "assay": "IC50 determination / concentration-dependent hCD39 mRNA knockdown in HDLM-2 cells", "settings": "for mRNA inhibition: HDLM-2, 3 days, Table 8", "outline": "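Antisense oligonucleotides applied to HDLM-2 cells for 3 days, titrated 10 μM down to 4.5 nM. hCD39 mRNA normalized to HPRT1 and expressed as residual level relative to untreated cells (100); mean of triplicates, IC50 from concentration-response.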"}, "hCD39 mRNA [3]": {"tested_on": "hCD39 mRNA", "assay": "hCD39 mRNA knockdown efficacy screen in A-172 cells (single dose, gymnotic delivery, QuantiGene Singleplex)", "settings": "10 μM, 3 days, normalized to HPRT1", "outline": "as §1"}, "hCD39 protein": {"tested_on": "hCD39 protein", "assay": "Concentration- and time-dependent hCD39 protein knockdown in HDLM-2 cells (flow cytometry)", "settings": "for Inhibition [%] (Protein/mRNA): HDLM-2, CD39 protein", "protocol": "FIG. 8 depicts concentration- and time-dependent CD39 protein knockdown by A04040H (SEQ ID No. 3) and A04045H (SEQ ID No. 4). Analysis of CD39 protein expression by flow cytometry in HDML-2 cells is given after treatment with the indicated antisense oligonucleotides for 3, 4 and 6 days. As treatment control, cells were treated with neg1 for 3, 4 and 6 days at the indicated concentrations. Relative expression compared to untreated control cells (=1) is depicted.\nas §2"}}, "note": "l = locked nucleic acid (LNA); d = 2'-deoxy (DNA)", "data": [{"substance": "+C*+A*+C*T*T*A*C*G*T*T*C*A*C*T*+A*+C*+C (antisense CACTTACGTTCACTACC; sugars from the 5' end l3 d11 l3, all phosphorothioate, methylation of C not given here) [A04045H]", "values": [{"measurement": "Mean hCD39 mRNA expression normalized to HPRT1 relative to untreated control = 1", "setting": "hCD39 mRNA [1]; first screening round", "value": 0.09}, {"measurement": "Relative hCD39 mRNA expression (compared to non-treated cells)", "setting": "hCD39 mRNA [1]; second screening round, normalized to HPRT1", "value": "*"}, {"measurement": "viability of HDLM-2 cells", "setting": "HDLM-2 cells", "value": "did not affect viability"}, {"measurement": "mRNA inhibition", "setting": "hCD39 mRNA [2]; 0.0045 μM", "value": 30.70, "unit": "%"}, {"measurement": "mRNA inhibition", "setting": "hCD39 mRNA [2]; 0.013 μM", "value": 33.03, "unit": "%"}, {"measurement": "mRNA inhibition", "setting": "hCD39 mRNA [2]; 0.04 μM", "value": 54.20, "unit": "%"}, {"measurement": "mRNA inhibition", "setting": "hCD39 mRNA [2]; 0.12 μM", "value": 73.62, "unit": "%"}, {"measurement": "mRNA inhibition", "setting": "hCD39 mRNA [2]; 0.4 μM", "value": 87.63, "unit": "%"}, {"measurement": "mRNA inhibition", "setting": "hCD39 mRNA [2]; 1.1 μM", "value": 95.07, "unit": "%"}, {"measurement": "mRNA inhibition", "setting": "hCD39 mRNA [2]; 3.3 μM", "value": 97.44, "unit": "%"}, {"measurement": "mRNA inhibition", "setting": "hCD39 mRNA [2]; 10 μM", "value": 99.19, "unit": "%"}, {"measurement": "maximal target inhibition (hCD39 mRNA)", "setting": "hCD39 mRNA [2]; HDLM-2 cells, compared to untreated cells, first IC50 determination", "value": 99.2, "unit": "%"}, {"measurement": "IC50", "setting": "hCD39 mRNA [2]; HDLM-2 cells, hCD39 mRNA, 3 days, first screening round (Table 8)", "value": 66.8, "unit": "nM"}, {"measurement": "Mean hCD39 mRNA expression (relative to untreated cells set as 1)", "setting": "hCD39 mRNA [3]; first screening round", "value": 0.16}, {"measurement": "Relative hCD39 mRNA expression (compared to non-treated cells)", "setting": "hCD39 mRNA [3]; second screening round", "value": 0.08}, {"measurement": "Inhibition [%] (Protein/mRNA)", "setting": "hCD39 protein; Day 3, 0.1 μM", "value": 38.81, "unit": "%"}, {"measurement": "Inhibition [%] (Protein/mRNA)", "setting": "hCD39 protein; Day 3, 0.5 μM", "value": 50.37, "unit": "%"}, {"measurement": "Inhibition [%] (Protein/mRNA)", "setting": "hCD39 protein; Day 3, 1 μM", "value": 51.53, "unit": "%"}, {"measurement": "Inhibition [%] (Protein/mRNA)", "setting": "hCD39 protein; Day 3, 10 μM", "value": 54.88, "unit": "%"}, {"measurement": "Inhibition [%] (Protein/mRNA)", "setting": "hCD39 protein; Day 4, 0.1 μM", "value": 61.88, "unit": "%"}, {"measurement": "Inhibition [%] (Protein/mRNA)", "setting": "hCD39 protein; Day 4, 0.5 μM", "value": 73.20, "unit": "%"}, {"measurement": "Inhibition [%] (Protein/mRNA)", "setting": "hCD39 protein; Day 4, 1 μM", "value": 75.55, "unit": "%"}, {"measurement": "Inhibition [%] (Protein/mRNA)", "setting": "hCD39 protein; Day 4, 10 μM", "value": 78.72, "unit": "%"}, {"measurement": "Inhibition [%] (Protein/mRNA)", "setting": "hCD39 protein; Day 6, 0.1 μM", "value": 80.24, "unit": "%"}, {"measurement": "Inhibition [%] (Protein/mRNA)", "setting": "hCD39 protein; Day 6, 0.5 μM", "value": 89.53, "unit": "%"}, {"measurement": "Inhibition [%] (Protein/mRNA)", "setting": "hCD39 protein; Day 6, 1 μM", "value": 90.46, "unit": "%"}, {"measurement": "Inhibition [%] (Protein/mRNA)", "setting": "hCD39 protein; Day 6, 10 μM", "value": 94.06, "unit": "%"}, {"measurement": "inhibition of hCD39 protein", "setting": "hCD39 protein; HDLM-2 cells, three, four and six days, different concentrations", "value": "potent inhibition of hCD39 protein after all indicated time points"}]}]}
